Read-outs that look alike come from different tables or passages of the source.
Experiments:
[1] = target: T1, HDAC7 (Homo sapiens, UniProt Q8WUI4); assay: HDAC biochemical activity measurement (fluorescent substrate deacetylation);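 further: fluorogenic deacetylation assay using acetyl-lysine substrate at 20 µM, enzyme and compound incubated 30 min at 37 °C, then developer added, fluorescence read at 360/460 nm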; conditions: HDAC7; 37° C. 30 minutes
T1 sequence (Q8WUI4 1-952): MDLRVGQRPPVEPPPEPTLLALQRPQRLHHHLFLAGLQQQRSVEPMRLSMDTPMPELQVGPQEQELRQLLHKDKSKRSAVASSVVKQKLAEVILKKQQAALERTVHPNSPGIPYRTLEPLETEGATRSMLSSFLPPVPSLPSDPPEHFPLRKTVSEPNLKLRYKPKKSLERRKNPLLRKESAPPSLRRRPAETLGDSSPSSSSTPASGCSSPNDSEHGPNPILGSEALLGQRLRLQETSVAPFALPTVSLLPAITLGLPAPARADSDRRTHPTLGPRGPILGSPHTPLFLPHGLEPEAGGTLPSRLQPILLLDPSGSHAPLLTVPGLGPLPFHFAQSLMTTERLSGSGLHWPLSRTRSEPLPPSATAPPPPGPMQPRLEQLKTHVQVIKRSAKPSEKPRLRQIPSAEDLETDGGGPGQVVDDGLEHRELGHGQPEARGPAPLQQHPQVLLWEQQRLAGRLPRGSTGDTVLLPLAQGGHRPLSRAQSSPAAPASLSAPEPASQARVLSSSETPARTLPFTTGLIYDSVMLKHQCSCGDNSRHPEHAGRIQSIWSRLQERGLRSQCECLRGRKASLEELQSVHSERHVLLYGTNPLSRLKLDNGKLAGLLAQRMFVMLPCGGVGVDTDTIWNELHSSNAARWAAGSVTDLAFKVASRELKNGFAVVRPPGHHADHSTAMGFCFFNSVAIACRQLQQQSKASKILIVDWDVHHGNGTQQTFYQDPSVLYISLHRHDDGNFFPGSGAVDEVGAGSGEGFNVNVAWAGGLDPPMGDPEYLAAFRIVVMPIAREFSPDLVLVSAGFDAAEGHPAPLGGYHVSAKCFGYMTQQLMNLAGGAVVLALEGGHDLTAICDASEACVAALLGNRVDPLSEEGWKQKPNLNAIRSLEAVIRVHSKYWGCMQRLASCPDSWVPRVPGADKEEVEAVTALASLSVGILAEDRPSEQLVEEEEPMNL

[2] = test system: A549 (human lung cancer cells); assay: MTT cancer cell growth inhibition; format: cell-based; conditions: Homo sapiens, A549, 72 h, MTT, 72 hours incubation, read-out: GI50 A54
Procedure, shortened: (§1)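 Using a 72 h MTT format, triplicate wells of 1500 cells received compound concentrations from 10^−5 to 10^−10 M. Formazan was read at 570 nm after DMSO dissolution, and GI50 was derived from viability.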

[3] = test system: BGC-823 (human gastric cancer cells); assay: MTT cancer cell growth inhibition; format: cell-based; conditions: Homo sapiens, BGC-823, 72 h, MTT, 72 hours incubation, read-out: GI50 BG
Procedure, shortened: as §1

[4] = test system: Bel-7402 (human hepatoma cells); assay: MTT cancer cell growth inhibition; format: cell-based; conditions: Homo sapiens, Bel-7402, 72 h, MTT, 72 hours incubation, Bel-7402 cells; read-out: GI50 Bel-7402
Procedure, shortened: as §1

[5] = test system: DU145 (human prostate cancer cells); assay: MTT cancer cell growth inhibition; format: cell-based; conditions: Homo sapiens, DU-145, 72 h, MTT, 72 hours incubation, read-out: GI50 Du1
Procedure, shortened: as §1

[6] = test system: H1975 (non-small cell lung adenocarcinoma); assay: MTT cancer cell growth inhibition; format: cell-based; conditions: Homo sapiens, NCI-H1975, 72 h, MTT, 72 hours incubation, H1975 cells; read-out: GI50 H1975
Procedure, shortened: as §1

[7] = test system: HCC827 (human non-small cell lung cancer cells); assay: MTT cancer cell growth inhibition; format: cell-based; conditions: Homo sapiens, HCC827, 72 h, MTT, 72 hours incubation, HCC827 cells; read-out: GI50 HCC827
Procedure, shortened: as §1

[8] = test system: HT1080 (human fibrosarcoma cells); assay: MTT cancer cell growth inhibition; format: cell-based; conditions: Homo sapiens, HT-1080, 72 h, MTT, 72 hours incubation, read-out: GI50 HT1
Procedure, shortened: as §1

[9] = test system: Hela (human cervical cancer cells); assay: MTT cancer cell growth inhibition; format: cell-based; conditions: Homo sapiens, HeLa, 72 h, MTT, 72 hours incubation, read-out: GI50 Hela
Procedure, shortened: as §1

[10] = test system: Huh-7 (human hepatoma cells); assay: MTT cancer cell growth inhibition; format: cell-based; conditions: Homo sapiens, Huh-7, 72 h, MTT, 72 hours incubation, Huh-7 cells; read-out: GI50 Huh-7
Procedure, shortened: as §1

[11] = test system: K562 (human leukemia cells); assay: MTT cancer cell growth inhibition; format: cell-based; conditions: Homo sapiens, K562, 72 h, MTT, 72 hours incubation, K562 cells; read-out: GI50 K562
Procedure, shortened: as §1

[12] = test system: KBM-5 (human chronic myelogenous leukemia); assay: MTT cancer cell growth inhibition; format: cell-based; conditions: Homo sapiens, KBM5, 72 h, MTT, 72 hours incubation, KBM-5 cells; read-out: GI50 KBM-5
Procedure, shortened: as §1

[13] = test system: KBM5-T315I (human chronic myelogenous leukemia); assay: MTT cancer cell growth inhibition; format: cell-based; conditions: Homo sapiens, 72 h, MTT, 72 hours incubation, KBM5-T315I cells; read-out: GI50 KBM5-T315I
Procedure, shortened: as §1

[14] = test system: MCF-7 (human breast cancer cells); assay: MTT cancer cell growth inhibition; format: cell-based; conditions: Homo sapiens, MCF7, 72 h, 72 hours incubation, read-out: GI50 MCF
Procedure, shortened: as §1

[15] = test system: MDA-MB-231 (breast cancer cells); assay: MTT cancer cell growth inhibition; format: cell-based; conditions: Homo sapiens, MDA-MB-231, 72 h, read-out: GI50 MDA-MB-231, MTT, 72 hours incubation, MDA-MB-231 cells
Procedure, shortened: as §1

[16] = test system: MOLT-4 (human acute lymphoblastic leukemia cells); assay: MTT cancer cell growth inhibition; format: cell-based; conditions: Homo sapiens, MOLT-4, 72 h, MTT, 72 hours incubation, read-out: GI50 Mol
Procedure, shortened: as §1

[17] = test system: N-87 (human gastric cancer cells); assay: MTT cancer cell growth inhibition; format: cell-based; conditions: Homo sapiens, 72 h, MTT, 72 hours incubation, N-87 cells; read-out: GI50 N-87
Procedure, shortened: as §1

[18] = test system: PANC-1 (Pac-1, human pancreatic cancer cells); assay: MTT cancer cell growth inhibition; format: cell-based; conditions: Homo sapiens, PANC-1, 72 h, MTT, 72 hours incubation, read-out: GI50 PAN
Procedure, shortened: as §1

[19] = test system: SGC-7901 (human gastric cancer cells); assay: MTT cancer cell growth inhibition; format: cell-based; conditions: Homo sapiens, SGC-7901, 72 h, MTT, 72 hours incubation, SGC-7901 cells; read-out: GI50 SGC-7901
Procedure, shortened: as §1

[20] = test system: U937 (human leukemia cells); assay: MTT cancer cell growth inhibition; format: cell-based; conditions: Homo sapiens, U-937, 72 h, MTT, 72 hours incubation, read-out: GI50 U93
Procedure, shortened: as §1

[21] = test system: lncap (prostate cancer cells); assay: MTT cancer cell growth inhibition; format: cell-based; conditions: Homo sapiens, LNCaP, 72 h, MTT, 72 hours incubation, read-out: GI50 lnca
Procedure, shortened: as §1

| IC50 HDAC7 [1] | GI50 [2] [nM] | GI50 [3] [nM] | GI50 [4] [nM] | GI50 [5] [nM] | GI50 [6] [nM] | GI50 [7] [nM] | GI50 [8] [nM] | GI50 [9] [nM] | GI50 [10] [nM] | GI50 [11] [nM] | GI50 [12] [nM] | GI50 [13] [nM] | GI50 [14] [nM] | GI50 [15] [nM] | GI50 [16] [nM] | GI50 [17] [nM] | GI50 [18] [nM] | GI50 [19] [nM] | GI50 [20] [nM] | Structure (SMILES) | also measured |
| --- | --- | --- | --- | --- | --- | --- | --- | --- | --- | --- | --- | --- | --- | --- | --- | --- | --- | --- | --- | --- | --- |
| no activity | 20 | 30 | 82 | 30 | 39 | 82 | 80 | 60 | 37 | 38 | 61 | 34 | 30 | 37 | 30 | 37 | 80 | 28 | 30 | C=C1NC(=O)c2ccc(F)c(n2)CNC(=O)C[C@@H](/C=C/CCSC(C)=O)OC(=O)[C@H](C(C)C)NC1=O [Compound 86] | GI50 [21]: 30 nM |
| no activity | – | – | 72 | – | 29 | 13 | – | – | 59 | 81 | 33 | 38 | – | 71 | – | 38 | – | 41 | – | C/C=C1\NC(=O)c2ccc(SC)c(n2)CCNC(=O)C[C@@H](/C=C/CCSC(C)=O)OC(=O)[C@H](C(C)C)NC1=O [Compound 225] | GI50 ([2]; A549 cells): 40 nM; GI50 ([3]; BGC-823 cells): 40 nM; GI50 ([5]; DU145 cells): 20 nM; GI50 ([8]; HT1080 cells): 20 nM; GI50 ([9]; Hela cells): 70 nM; GI50 ([14]; MCF-7 cells): 30 nM; GI50 ([16]; MOLT-4 cells): 60 nM; GI50 ([18]; PANC-1 cells): 30 nM; GI50 ([20]; U937 cells): 30 nM; GI50 ([21]; lncap cells): 20 nM |
| no activity | – | – | 62 | – | 38 | 37 | – | – | 21 | 36 | 21 | 43 | – | 27 | – | 65 | – | 53 | – | C/C=C1\NC(=O)c2nc(cc(SC)n2)CNC(=O)C[C@@H](/C=C/CCSC(C)=O)OC(=O)[C@H](C)NC1=O [Compound 218] | GI50 ([2]; A549 cells): 30 nM; GI50 ([3]; BGC-823 cells): 60 nM; GI50 ([5]; DU145 cells): 50 nM; GI50 ([8]; HT1080 cells): 20 nM; GI50 ([9]; Hela cells): 80 nM; GI50 ([14]; MCF-7 cells): 40 nM; GI50 ([16]; MOLT-4 cells): 90 nM; GI50 ([18]; PANC-1 cells): 50 nM; GI50 ([20]; U937 cells): 60 nM; GI50 ([21]; lncap cells): 50 nM |
| no activity | 50 | 40 | 34 | 30 | 27 | 34 | 30 | 50 | 38 | 37 | 53 | 62 | 60 | 38 | 30 | 41 | 30 | 51 | 20 | C/C=C1\NC(=O)c2cc(F)cc(n2)CNC(=O)C[C@@H](/C=C/CCSC(=O)CCCCC)OC(=O)[C@H](C(C)C)NC1=O [Example 37] | GI50 [21]: 30 nM |
| no activity | – | – | 26 | – | 45 | 47 | – | – | 107 | 58 | 75 | 23 | – | 58 | – | 39 | – | 49 | – | C/C=C1\NC(=O)c2cc(SC)cc(n2)CNC(=O)C[C@@H](/C=C/CCSC(=O)CC)OC(=O)[C@H](C(C)C)NC1=O [Compound 163] | GI50 ([2]; A549 cells): 50 nM; GI50 ([3]; BGC-823 cells): 60 nM; GI50 ([5]; DU145 cells): 40 nM; GI50 ([8]; HT1080 cells): 10 nM; GI50 ([9]; Hela cells): 10 nM; GI50 ([14]; MCF-7 cells): 20 nM; GI50 ([16]; MOLT-4 cells): 40 nM; GI50 ([18]; PANC-1 cells): 70 nM; GI50 ([20]; U937 cells): 30 nM; GI50 ([21]; lncap cells): 30 nM |
| no activity | 50 | 30 | 72 | 20 | 28 | 35 | 30 | 30 | 16 | 76 | 57 | 15 | 30 | 51 | 50 | 45 | 690 | 42 | 100 | C/C=C1\NC(=O)c2nc(ccc2F)CNC(=O)C[C@@H](/C=C/CCS)OC(=O)[C@H](Cc2cccc3ccccc23)NC1=O [Compound 124] | GI50 [21]: 70 nM |
